This note sets out measurements from ChEMBL document CHEMBL3045734, “Synthesis of Mannich Bases of 2, 6-Disubstituted 2H-pyran-3(6H)-ones and their Miticidal Activity” (1994).

What all share (assay type): functional
For assay [1], the system named is Tetranychus urticae. Description: Miticidal activity against Tetranychus urticae (two-spotted spider mite) in kidney beans assessed as mortality under greenhouse at 50 ppm at 25 +/- 2 degC measured after 48 hr of spray.
Assay [2] deals with Tetranychus urticae. The assay is described as follows: Miticidal activity against Tetranychus urticae (two-spotted spider mite) in kidney beans assessed as mortality under greenhouse at 100 ppm at 25 +/- 2 degC measured after 48 hr of spray.
The subject of assay [3] is Tetranychus urticae. Description: Miticidal activity against Tetranychus urticae (two-spotted spider mite) in kidney beans assessed as mortality under greenhouse at 300 ppm at 25 +/- 2 degC measured after 48 hr of spray.
Assay [4] has as its system Tetranychus urticae. Description: Miticidal activity against Tetranychus urticae (two-spotted spider mite) in kidney beans assessed as mortality under greenhouse at 600 ppm at 25 +/- 2 degC measured after 48 hr of spray.
Assay [5] deals with Panonychus citri. Description: Miticidal activity against Panonychus citri in satsuma mandr assessed as next generation adult mites under greenhouse at 300 ppm at 25 +/- 2 degC measured after 14 days of spray relative to control.
Assay [6] relates to Tetranychus kanzawai. The assay is described as follows: Miticidal activity against Tetranychus kanzawai in kidney beans assessed as next generation adult mites under greenhouse at 300 ppm at 25 +/- 2 degC measured after 14 days of spray relative to control.
Assay [7] relates to Tetranychus urticae. The assay is described as follows: Miticidal activity against Tetranychus urticae (two-spotted spider mite) in kidney beans assessed as next generation adult mites under greenhouse at 300 ppm at 25 +/- 2 degC measured after 14 days of spray relative to control.
For assay [8], the system named is Panonychus citri. The assay is described as follows: Miticidal activity against Panonychus citri in satsuma mandarin assessed as mortality under greenhouse at 50 ppm at 25 +/- 2 degC measured after 48 hr of spray.
Assay [9] has as its system Panonychus citri. The assay is described as follows: Miticidal activity against Panonychus citri in satsuma mandarin assessed as mortality under greenhouse at 100 ppm at 25 +/- 2 degC measured after 48 hr of spray.
Assay [10] relates to Panonychus citri. The assay is described as follows: Miticidal activity against Panonychus citri in satsuma mandarin assessed as mortality under greenhouse at 300 ppm at 25 +/- 2 degC measured after 48 hr of spray.
The subject of assay [11] is Tetranychus kanzawai. The assay is described as follows: Miticidal activity against Tetranychus kanzawai in kidney beans assessed as mortality under greenhouse at 50 ppm at 25 +/- 2 degC measured after 48 hr of spray.
Assay [12] concerns Tetranychus kanzawai. The assay is described as follows: Miticidal activity against Tetranychus kanzawai in kidney beans assessed as mortality under greenhouse at 100 ppm at 25 +/- 2 degC measured after 48 hr of spray.
The subject of assay [13] is Tetranychus kanzawai. Description: Miticidal activity against Tetranychus kanzawai in kidney beans assessed as mortality under greenhouse at 300 ppm at 25 +/- 2 degC measured after 48 hr of spray.

Consider `CCCCCCC1OC(OC)C=C(CN2CCCCC2)C1=O` (centres undefined), for which, in [1], the mortality at 50 ppm was determined as 40%. Besides, the mortality at 100 ppm in assay [2] stood at 77%. The mortality at 300 ppm in assay [3] came to 100%. Moreover, in assay [4], the mortality at 600 ppm stood at 100%.

On to `CCCCCCCCC1OC(OC)C=C(CN2CCCCC2)C1=O` (centres undefined), for which, in [2], the mortality at 100 ppm turned out to be 50%. The mortality at 300 ppm in assay [3] came out at 90%. The mortality at 600 ppm in assay [4] turned out to be 100%.

Regarding `CCCCCCC1OC(OC2CCCCC2)C=C(CN2CCCCC2)C1=O` (centres undefined), the mortality at 50 ppm in assay [1] came out at 40%. Also, the mortality at 100 ppm in assay [2] amounted to 82%. Also, in assay [3], the mortality at 300 ppm is 100%.

As for `CCCCCCC1OC(OCc2ccccc2)C=C(CN2CCCCC2)C1=O` (centres undefined), the mortality at 100 ppm in [2] amounted to 40%. The mortality at 300 ppm in assay [3] was found to be 55%.

`CCCCCCC1OC(Oc2ccccc2)C=C(CN2CCCCC2)C1=O` (centres undefined): the mortality at 100 ppm in assay [2] was found to be 20%. In addition, the mortality at 300 ppm in assay [3] amounted to 60%.

With `CCCCCCCCCCCCC1OC(OC)C=C(CN2CCCCC2)C1=O` (centres undefined), the mortality at 300 ppm in assay [3] worked out at 65%. Besides, in assay [4], the mortality at 600 ppm came to 90%.

`COC1C=C(CN2CCCCC2)C(=O)C(c2ccccc2)O1` (centres undefined): the mortality at 600 ppm in assay [4] came to 30%.

On to `CCCCCCC1OC(OC)C=C(CN(CC)CC)C1=O` (centres undefined), for which the mortality at 600 ppm in [4] worked out at 60%.

Regarding `CCN(CC)CC1=CC(OC)OC(C2CCCCC2)C1=O` (centres undefined), in assay [4], the mortality at 600 ppm amounted to 60%.

Consider `CCCCCCC1OC(OC)C=C(CN(CCCC)CCCC)C1=O` (centres undefined), for which the mortality at 600 ppm in assay [4] stood at 75%.

On to `CCCCN(CCCC)CC1=CC(OC)OC(C2CCCCC2)C1=O` (centres undefined), for which the mortality at 600 ppm in assay [4] stood at 70%.

`CCCCCCC1OC(OC)C=C(CN2CCCC2)C1=O` (centres undefined): in assay [4], the mortality at 600 ppm was determined as 70%.

`COC1C=C(CN2CCCC2)C(=O)C(C2CCCCC2)O1` (centres undefined): the mortality at 600 ppm in [4] is 68%.

For the compound `CCCCCCC1OC(OC)C=C(CN2CCOCC2)C1=O` (centres undefined), the mortality at 300 ppm in assay [3] was found to be 65%. The mortality at 600 ppm in assay [4] stood at 90%.

Consider `COC1C=C(CN2CCOCC2)C(=O)C(C2CCCCC2)O1` (centres undefined), for which the mortality at 300 ppm in assay [3] amounted to 65%. For the same compound, in assay [4], the mortality at 600 ppm was 90%.

For `CCCCCCC1OC(OC)C=C(CN2CCC(C)CC2)C1=O` (centres undefined), the mortality at 100 ppm in [2] is 70%. Also, the mortality at 300 ppm in assay [3] stood at 95%. The mortality at 600 ppm in assay [4] worked out at 100%.

As to `COC1C=C(CN2CCC(C)CC2)C(=O)C(C2CCCCC2)O1` (centres undefined), the mortality at 100 ppm in [2] was found to be 60%. Also, the mortality at 300 ppm in [3] came to 85%. In assay [4], the mortality at 600 ppm worked out at 100%.

`CCCCCCC1OC(OC)C=C(CN2CCCC(C)C2)C1=O` (centres undefined): in assay [2], the mortality at 100 ppm worked out at 55%. The mortality at 300 ppm in assay [3] amounted to 85%. Also, in [4], the mortality at 600 ppm turned out to be 100%.

Regarding `COC1C=C(CN2CCCC(C)C2)C(=O)C(C2CCCCC2)O1` (centres undefined), in [2], the mortality at 100 ppm amounted to 65%. For the same compound, in assay [3], the mortality at 300 ppm turned out to be 83%. Moreover, the mortality at 600 ppm in assay [4] is 100%.

`CCCCCCC1OC(OC)C=C(CN2CCCCC2C)C1=O` (centres undefined): in [3], the mortality at 300 ppm came out at 60%. Besides, the mortality at 600 ppm in [4] was determined as 90%.

For `COC1C=C(CN2CCCCC2C)C(=O)C(C2CCCCC2)O1` (centres undefined), the mortality at 300 ppm in assay [3] stood at 55%. Further, the mortality at 600 ppm in assay [4] came out at 80%.

As for `CCCCCCC1OC(OCC)C=C(CN2CCCCC2)C1=O` (centres undefined), the mortality at 50 ppm in assay [1] amounted to 40%. Also, in [2], the mortality at 100 ppm was found to be 70%. In [3], the mortality at 300 ppm worked out at 100%.

Consider `CCCCCCC1OC(OCCC)C=C(CN2CCCCC2)C1=O` (centres undefined), for which, in assay [1], the mortality at 50 ppm was determined as 70%. Further, the mortality at 100 ppm in [2] turned out to be 100%. Besides, the mortality at 300 ppm in assay [3] is 100%.

With `CCCCCCC1OC(OC(C)C)C=C(CN2CCCCC2)C1=O` (centres undefined), the Activity in assay [5] is reported as 91%; in assay [6] it was 90%; in [7], 93%. For the same compound, the mortality at 50 ppm in assay [8] is 88%; in assay [11], 93%; in [1], 90%. The mortality at 100 ppm in assay [9], in assay [12] and in assay [2] was 100% each time. Also, the mortality at 300 ppm in assay [10], in [13] and in assay [3] was 100% throughout.

Regarding `CCCCCCC1OC(OCCCC)C=C(CN2CCCCC2)C1=O` (centres undefined), the mortality at 50 ppm in [1] is 40%. Besides, the mortality at 100 ppm in assay [2] worked out at 75%. Further, in assay [3], the mortality at 300 ppm was determined as 100%.

With `CCCCCCC1OC(OCC(C)C)C=C(CN2CCCCC2)C1=O` (centres undefined), the mortality at 50 ppm in [1] was 75%. Also, in assay [2], the mortality at 100 ppm was found to be 92%. Also, the mortality at 300 ppm in [3] is 100%.

In the case of `CCCCCCC1OC(OC(C)(C)C)C=C(CN2CCCCC2)C1=O` (centres undefined), the mortality at 50 ppm in assay [1] turned out to be 50%. Besides, the mortality at 100 ppm in [2] amounted to 75%. The mortality at 300 ppm in [3] was 95%.

As for `CCCCCCOC1C=C(CN2CCCCC2)C(=O)C(CCCCCC)O1` (centres undefined), the mortality at 50 ppm in [1] was 45%. Further, the mortality at 100 ppm in assay [2] turned out to be 70%. Further, the mortality at 300 ppm in assay [3] was 85%.

Turning to `COC1C=C(CN2CCCCC2)C(=O)CO1` (centres undefined), in assay [3], the mortality at 300 ppm was 10%. Further, the mortality at 600 ppm in [4] was 70%.

For `CCCC1OC(OC)C=C(CN2CCCCC2)C1=O` (centres undefined), the mortality at 300 ppm in assay [3] worked out at 20%. In addition, in assay [4], the mortality at 600 ppm was found to be 90%.

For `CCCCC1OC(OC)C=C(CN2CCCCC2)C1=O` (centres undefined), the mortality at 100 ppm in assay [2] was 10%. Besides, the mortality at 300 ppm in assay [3] was determined as 87%. Moreover, in [4], the mortality at 600 ppm was determined as 90%.

On to `CCCCCC1OC(OC)C=C(CN2CCCCC2)C1=O` (centres undefined), for which, in assay [2], the mortality at 100 ppm was found to be 20%. Moreover, the mortality at 300 ppm in assay [3] came out at 95%. The mortality at 600 ppm in assay [4] is 100%.

`COC1C=C(CN2CCCCC2)C(=O)C(C2CCCCC2)O1` (centres undefined): the mortality at 100 ppm in assay [2] turned out to be 68%. Further, in assay [3], the mortality at 300 ppm was 100%. In [4], the mortality at 600 ppm came out at 100%.

Take `CCCCCCCCCCC1OC(OC)C=C(CN2CCCCC2)C1=O` (centres undefined): the mortality at 100 ppm in assay [2] was found to be 20%. For the same compound, the mortality at 300 ppm in [3] worked out at 70%. Besides, the mortality at 600 ppm in [4] worked out at 95%.

In general, mortality refers to the percentage killed.
